Source: US8207156B2, “Substituted pyrazoline compounds, their preparation and use as medicaments” (Laboratorios Del Dr. Esteve, S.A., priority 2005, dated 2012)

target: recombinant human cannabinoid 1 receptor (CB1) (Homo sapiens, UniProt P21554); test: In vitro determination of antagonism to CB1-receptor ([35S]GTPγS binding assay, CHO cell membranes); format: biochemical; details: compound at 1 μM against agonist WIN 55,212-2 (3 nM to 3 μM); effect of Rimonabant (1 μM) defined as 100%
Protocol: Chinese hamster ovary (CHO) cells stably expressing recombinant human cannabinoid 1 receptor (CB1) were cultured in nutrient mixture Ham's F 12 supplemented with 10% heat-inactivated fetal bovine serum, 2 mM L-glutamine, 50 U/ml penicillin, 50 U/ml streptomycin and 0.5 mg/ml geneticin. In order to obtain cells, culture flasks were washed twice with phosphate buffered saline and scraped. Then, cells were collected by centrifugation (200×g, 10 min) and stored dry at −80° C. Cells were homogenized in ice-cold 20 mM HEPES, 10 mM EDTA (pH 7.5) and centrifuged at 40,000×g for 15 min at 4° C. The membrane pellet was resuspended in 20 mM HEPES, 0.1 mM EDTA (pH 7.5) and centrifuged for 15 min at 4° C. The final membrane pellet was resuspended in 20 mM HEPES, 0.1 mM EDTA (pH 7.5), and divided in aliquots and stored at −80° C. until use.
The reaction was performed in 96-well plates. Membranes (15 μg protein/well) were incubated for 60 min at 30° C. in buffer (50 mM HEPES, 100 mM KCl, 5 mM MgCl2,1 mM EDTA, 0.1% wt/vol bovine serum albumin, 5 μM GDP, saponin (10 μg/ml), 0.5 nM [^35S]GTPγS, pH 7.4) with compound at a final concentration of 1 μM in either the absence or presence of agonist WIN 55, 212-2 between 3 nM and 3 μM. The incubation was terminated by rapid filtration through Millipore Multiscreen glass fiber FB, and rinsed two-times with ice-cold assay buffer. Filter plates were dried and 30 μl of scintillation liquid was added. Radioactivity was determined using a Wallac Microbeta Trilux. Each experiment was performed at least in duplicate. A WIN 55, 212-2 dose-response experiment either alone or in the presence of Rimonabant (1 μM) was systematically performed.
The average of basal [^35S]GTPγS binding was subtracted from all binding data. In order to compare the antagonism results from one screening campaign to another one, the difference between the maximal agonist effect of WIN 55, 212-2 alone, and the maximal antagonism effect due to WIN 55, 212-2 plus Rimonabant (1 μM) was defined as 100%.

Chain of recombinant human cannabinoid 1 receptor (CB1) (P21554 whole entry): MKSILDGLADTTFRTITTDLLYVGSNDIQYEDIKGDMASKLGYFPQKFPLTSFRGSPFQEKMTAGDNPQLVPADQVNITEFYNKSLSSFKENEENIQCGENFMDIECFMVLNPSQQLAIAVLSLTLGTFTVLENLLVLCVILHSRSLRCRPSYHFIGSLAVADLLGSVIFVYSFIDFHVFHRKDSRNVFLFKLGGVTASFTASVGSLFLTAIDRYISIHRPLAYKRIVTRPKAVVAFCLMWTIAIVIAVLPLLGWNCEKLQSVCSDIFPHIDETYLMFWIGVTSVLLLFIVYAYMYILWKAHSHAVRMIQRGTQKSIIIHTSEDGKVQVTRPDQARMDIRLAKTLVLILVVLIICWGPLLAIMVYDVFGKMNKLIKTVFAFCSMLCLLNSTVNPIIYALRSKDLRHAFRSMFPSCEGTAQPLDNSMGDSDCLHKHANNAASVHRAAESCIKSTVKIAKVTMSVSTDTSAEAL

Q: Which “Antagonism [%]” value does the source give for CN(C)C(=O)C1=NN(c2ccc(Cl)cc2Cl)C(c2ccc(Cl)cc2)C1 (centres unmarked) [Example 51, 5-(4-Chloro-phenyl)-1-(2,4-dichloro-phenyl)-4,5-dihydro-1H-pyrazole-3-carboxylic acid dimethylamide] here?
A: 21%

Q: For CC1CCCC(C)N1NC(=O)C1=NN(c2ccc(Cl)cc2Cl)C(c2ccc(Br)cc2)C1 (centres unmarked) [Example 62, 5-(4-Bromo-phenyl)-1-(2,4-dichloro-phenyl)-4,5-dihydro-1H-pyrazole-3-carboxylic acid (2,6-dimethyl-piperidin-1-yl)-amide], which “Antagonism [%]” value is on record?
A: 67%

Q: How did the “Antagonism [%]” value turn out when O=C(NN1CCc2ccccc21)C1=NN(c2ccc(Cl)cc2Cl)C(c2ccc(Cl)cc2)C1 (centres unmarked) [Example 28, 5-(4-Chloro-phenyl)-1-(2,4-dichloro-phenyl)-4,5-dihydro-1H-pyrazole-3-carboxylic acid (2,3-dihydro-indol-1-yl)-amide] was run?
A: 63%

Q: Which “Antagonism [%]” value does the source give for CN1CCN(C(=O)C2=NN(c3ccc(Cl)cc3Cl)C(c3ccc(Cl)cc3)C2)CC1 (centres unmarked) [Example 43, [5-(4-Chloro-phenyl)-1-(2,4-dichloro-phenyl)-4,5-dihydro-1H-pyrazol-3-yl]-(4-methyl-piperazin-1-yl)-methanone] here?
A: 25%

Q: With Cl.O=C(NN1CCOCC1)C1=NN(c2ccc(Cl)cc2Cl)C(c2ccc(Cl)cc2)C1 (centres unmarked) [Example 9, 5-(4-Chloro-phenyl)-1-(2,4-dichloro-phenyl)-4,5-dihydro-1H-pyrazole-3-carboxylic acid morpholin-4-ylamide hydrochloride] as the compound, how does the “Antagonism [%]” value read?
A: 53%

Q: With O=C(NN1C(=O)c2cccc3cccc(c23)C1=O)C1=NN(c2ccc(Cl)cc2Cl)C(c2ccc(Cl)cc2)C1 (centres unmarked) [Example 24, 5-(4-Chloro-phenyl)-1-(2,4-dichloro-phenyl)-4,5-dihydro-1H-pyrazole-3-carboxylic acid (1,3-dioxo-1H,3H-benzo[de]isoquinolin-2-yl)-amide] as the compound, how does the “Antagonism [%]” value read?
A: 27%

Q: For O=C(NC1CCCCCCCCCCC1)C1=NN(c2ccc(Cl)cc2Cl)C(c2ccc(Cl)cc2)C1 (centres unmarked) [Example 49, 5-(4-Chloro-phenyl)-1-(2,4-dichloro-phenyl)-4,5-dihydro-1H-pyrazole-3-carboxylic acid cyclododecylamide], which “Antagonism [%]” value is on record?
A: 14%

Q: How did the “Antagonism [%]” value turn out when O=C(NC1CCC1)C1=NN(c2ccc(Cl)cc2Cl)C(c2ccc(Cl)cc2)C1 (centres unmarked) [Example 30, 5-(4-Chloro-phenyl)-1-(2,4-dichloro-phenyl)-4,5-dihydro-1H-pyrazole-3-carboxylic acid cyclobutylamide] was run?
A: 54%

Q: How did the “Antagonism [%]” value turn out when CC1CCC(NC(=O)C2=NN(c3ccc(Cl)cc3Cl)C(c3ccc(Cl)cc3)C2)CC1 (centres unmarked) [Example 17, 5-(4-Chloro-phenyl)-1-(2,4-dichloro-phenyl)-4,5-dihydro-1H-pyrazole-3-carboxylic acid (4-methyl-cyclohexyl)-amide] was run?
A: 65%

Q: Which “Antagonism [%]” value does the source give for O=C(C1=NN(c2ccc(Cl)cc2Cl)C(c2ccc(Cl)cc2)C1)N1CCCCCCC1 (centres unmarked) [Example 38, Azocan-1-yl-[5-(4-chloro-phenyl)-1-(2,4-dichloro-phenyl)-4,5-dihydro-1H-pyrazol-3-yl]-methanone] here?
A: 45%

Q: For O=C(NN1CCCC1)C1=NN(c2ccc(Cl)cc2Cl)C(c2ccc(Br)cc2)C1 (centres unmarked) [Example 61, 5-(4-Bromo-phenyl)-1-(2,4-dichloro-phenyl)-4,5-dihydro-1H-pyrazole-3-carboxylic acid pyrrolidin-1-ylamide], which “Antagonism [%]” value is on record?
A: 75%

Q: O=C(C1=NN(c2ccc(Cl)cc2Cl)C(c2ccc(Cl)cc2)C1)N1CCc2sccc2C1 (centres unmarked) [Example 56, [5-(4-Chloro-phenyl)-1-(2,4-dichloro-phenyl)-4,5-dihydro-1H-pyrazol-3-yl]-(6,7-dihydro-4H-thieno[3,2-c]pyridin-5-yl)-methanone] was tested. Which “Antagonism [%]” value did it give?
A: 44%

Q: CCOC(=O)N1CCN(C(=O)C2=NN(c3ccc(Cl)cc3Cl)C(c3ccc(Cl)cc3)C2)CC1 (centres unmarked) [Example 44, 4-[5-(4-Chloro-phenyl)-1-(2,4-dichloro-phenyl)-4,5-dihydro-1H-pyrazole-3-carbonyl]-piperazine-1-carboxylic acid ethyl ester] was tested. Which “Antagonism [%]” value did it give?
A: 39%

Q: For O=C(C1=NN(c2ccc(Cl)cc2Cl)C(c2ccc(Cl)cc2)C1)N1Cc2ccccc2C1 (centres unmarked) [Example 39, [5-(4-Chloro-phenyl)-1-(2,4-dichloro-phenyl)-4,5-dihydro-1H-pyrazol-3-yl]-(1,3-dihydro-isoindol-2-yl)-methanone], which “Antagonism [%]” value is on record?
A: 62%

Q: COC(C)(C)[C@@H]1CCCN1NC(=O)C1=NN(c2ccc(Cl)cc2Cl)C(c2ccc(Cl)cc2)C1 (some centres unmarked) [Example 15, 5-(4-Chloro-phenyl)-1-(2,4-dichloro-phenyl)-4,5-dihydro-1H-pyrazole-3-carboxylic acid [2-(1-methoxy-1-methyl-ethyl)-pyrrolidin-1-yl]-amide] was tested. Which “Antagonism [%]” value did it give?
A: 6%

Q: For O=C(NN1CCN(C2CCCC2)CC1)C1=NN(c2ccc(Cl)cc2Cl)C(c2ccc(Cl)cc2)C1 (centres unmarked) [Example 26, 5-(4-Chloro-phenyl)-1-(2,4-dichloro-phenyl)-4,5-dihydro-1H-pyrazole-3-carboxylic acid (4-cyclopentyl-piperazin-1-yl)-amide], which “Antagonism [%]” value is on record?
A: 52%

Q: Which “Antagonism [%]” value does the source give for O=C(NC1CCCCCCC1)C1=NN(c2ccc(Cl)cc2Cl)C(c2ccc(Cl)cc2)C1 (centres unmarked) [Example 34, 5-(4-Chloro-phenyl)-1-(2,4-dichloro-phenyl)-4,5-dihydro-1H-pyrazole-3-carboxylic acid cyclooctylamide] here?
A: 60%

Q: How did the “Antagonism [%]” value turn out when O=C(NC1CC1)C1=NN(c2ccc(Cl)cc2Cl)C(c2ccc(Cl)cc2)C1 (centres unmarked) [Example 36, 5-(4-Chloro-phenyl)-1-(2,4-dichloro-phenyl)-4,5-dihydro-1H-pyrazole-3-carboxylic acid cyclopropylamide] was run?
A: −5%

Q: For O=C(C1=NN(c2ccc(Cl)cc2Cl)C(c2ccc(Cl)cc2)C1)N1CCC1 (centres unmarked) [Example 40, Azetidin-1-yl-[5-(4-chloro-phenyl)-1-(2,4-dichloro-phenyl)-4,5-dihydro-1H-pyrazol-3-yl]-methanone], which “Antagonism [%]” value is on record?
A: 32%

Q: For O=C(O)C1=NN(c2ccc(Cl)cc2Cl)C(c2ccc(Br)cc2)C1 (centres unmarked) [Example 128, 5-(4-Bromo-phenyl)-1-(2,4-dichloro-phenyl)-4,5-dihydro-1H-pyrazole-3-carboxylic acid], which “Antagonism [%]” value is on record?
A: 18%

Q: Which “Antagonism [%]” value does the source give for CCC1CCC(C)N(C(=O)C2=NN(c3ccc(Cl)cc3Cl)C(c3ccc(Cl)cc3)C2)C1 (centres unmarked) [Example 59, [5-(4-Chloro-phenyl)-1-(2,4-dichloro-phenyl)-4,5-dihydro-1H-pyrazol-3-yl]-(5-ethyl-2-methyl-piperidin-1-yl)-methanone] here?
A: 60%

Q: For CC1CCCCN1C(=O)C1=NN(c2ccc(Cl)cc2Cl)C(c2ccc(Cl)cc2)C1 (centres unmarked) [Example 46, [5-(4-Chloro-phenyl)-1-(2,4-dichloro-phenyl)-4,5-dihydro-1H-pyrazol-3-yl]-(2-methyl-piperidin-1-yl)-methanone], which “Antagonism [%]” value is on record?
A: 53%

Q: For CC(C)N(C(=O)C1=NN(c2ccc(Cl)cc2Cl)C(c2ccc(Cl)cc2)C1)C1CCCCC1 (centres unmarked) [Example 55, 5-(4-Chloro-phenyl)-1-(2,4-dichloro-phenyl)-4,5-dihydro-1H-pyrazole-3-carboxylic acid cyclohexyl-isopropyl-amide], which “Antagonism [%]” value is on record?
A: 30%

Q: Which “Antagonism [%]” value does the source give for O=C(NN1Cc2cccc3cccc(c23)C1)C1=NN(c2ccc(Cl)cc2Cl)C(c2ccc(Cl)cc2)C1 (centres unmarked) [Example 25, 5-(4-Chloro-phenyl)-1-(2,4-dichloro-phenyl)-4,5-dihydro-1H-pyrazole-3-carboxylic acid (1H,3H-benzo[de]isoquinolin-2-yl)-amide] here?
A: 7%

Q: How did the “Antagonism [%]” value turn out when O=C(C1=NN(c2ccc(Cl)cc2Cl)C(c2ccc(Cl)cc2)C1)N1CCN(C2CCCCC2)CC1 (centres unmarked) [Example 21, [5-(4-Chloro-phenyl)-1-(2,4-dichloro-phenyl)-4,5-dihydro-1H-pyrazol-3-yl]-(4-cyclohexyl-piperazin-1-yl)-methanone] was run?
A: 66%

Q: Which “Antagonism [%]” value does the source give for CC1(C)[C@@H]2CC[C@@]1(C)[C@@H](NC(=O)C1=NN(c3ccc(Cl)cc3Cl)C(c3ccc(Cl)cc3)C1)C2 (some centres unmarked) [Example 58, 5-(4-Chloro-phenyl)-1-(2,4-dichloro-phenyl)-4,5-dihydro-1H-pyrazole-3-carboxylic acid (1,7,7-trimethyl-bicyclo[2.2.1]hept-2-yl)-amide] here?
A: 47%
